Assay results: patent US20170107179A1 (Tetraphase Pharmaceuticals, Inc., priority 2010, published 2017)

Tested on: Gram-negative and Gram-positive organisms (clinical isolates)
Assay: Broth microdilution MIC against clinical isolates (CLSI M7-A8), Table 9
Type: cell-based

How did the “MICs against tetracycline resistant isolates relative to tetracycline susceptible isolates” value turn out when CN(C)c1cc(NC(=O)CNC(C)(C)C)c(O)c2c1C[C@H]1C[C@H]3[C@H](N(C)C)C(O)=C(C(N)=O)C(=O)[C@@]3(O)C(O)=C1C2=O [Tigecycline, tigecycline] was run?
Its value is “not notably altered”.
